Results reported in patent US6077680A (The University of Florida, dated 2000).

system: rat brain membrane K channels (primarily Kv1.2); experiment: not given; type: binding; details: not given

Compound | Difference of Free Energy of Binding | IC50 Ratio | binding affinity for rat brain K channels relative to wild-type ShK toxin, in words | Equipotent Molar Ratio (Analog IC50 /ShK IC50) | Free Energy Differ. of Binding ΔF | ΔF | increase in relative free energy of binding | Equipotent Molar Ration (Analog IC50 /ShK IC50) Rat brain
RSCIDTIPKSRCTAPQCKHSMKYRLSFCRKACGTC [T31A] | -0.30 | 0.6 | increased affinities |  |  |  |  | 
RSCADTIPKSRCTAAQCKHSMKYRLSFCRKRCGTC [A4 + A15] |  | 0.5 | more potent than the wild-type toxin | 0.5 | -0.41 | -0.41 |  | 
CC[C@H](C)[C@@H]1NC(=O)[C@@H](NC(=O)[C@H](CO)NC(=O)[C@@H](N)CCCNC(=N)N)CSSC[C@@H](C(=O)O)NC(=O)[C@H]([C@@H](C)O)NC(=O)CNC(=O)[C@@H]2CSSC[C@@H]3NC(=O)[C@H](CCC(N)=O)NC(=O)[C@H](Cc4ccccc4)NC(=O)[C@H](C)NC(=O)[C@H]([C@@H](C)O)NC(=O)[C@H](CSSC[C@H](NC(=O)[C@H](Cc4ccccc4)NC(=O)[C@H](CO)NC(=O)[C@H](C)NC(=O)[C@H](CCCNC(=N)N)NC(=O)[C@H](Cc4ccc(O)cc4)NC(=O)[C@H](CCCCN)NC(=O)[C@H](CCSC)NC(=O)[C@H](CO)NC(=O)[C@H](Cc4c[nH]cn4)NC(=O)[C@H](CCCCN)NC3=O)C(=O)N[C@@H](CCCNC(=N)N)C(=O)N[C@@H](CCCCN)C(=O)N[C@@H]([C@@H](C)O)C(=O)N2)NC(=O)[C@H](CCCNC(=N)N)NC(=O)[C@H](CO)NC(=O)[C@H](CCCCN)NC(=O)[C@@H]2CCCN2C(=O)[C@H]([C@@H](C)CC)NC(=O)[C@H]([C@@H](C)O)NC(=O)[C@H](CC(=O)O)NC1=O [L25A] | 0.20 | 1.4 |  |  |  |  |  | 
CC[C@H](C)[C@@H]1NC(=O)[C@@H](NC(=O)[C@H](CO)NC(=O)[C@@H](N)CCCNC(=N)N)CSSC[C@@H](C(=O)O)NC(=O)[C@H]([C@@H](C)O)NC(=O)CNC(=O)[C@@H]2CSSC[C@@H]3NC(=O)[C@H](CCC(N)=O)NC(=O)[C@H](Cc4ccccc4)NC(=O)[C@H](C)NC(=O)[C@H]([C@@H](C)O)NC(=O)[C@H](CSSC[C@H](NC(=O)[C@H](Cc4ccccc4)NC(=O)[C@H](CO)NC(=O)[C@H](CC(C)C)NC(=O)[C@H](CCCNC(=N)N)NC(=O)[C@H](Cc4ccc(O)cc4)NC(=O)[C@H](CCCCN)NC(=O)[C@H](CCSC)NC(=O)[C@H](CO)NC(=O)[C@H](Cc4c[nH]cn4)NC(=O)[C@H](CCCCN)NC3=O)C(=O)N[C@@H](CCCNC(=N)N)C(=O)N[C@@H](CCCCN)C(=O)N[C@@H]([C@@H](C)O)C(=O)N2)NC(=O)[C@H](CCCNC(=N)N)NC(=O)[C@H](CO)NC(=O)[C@H](CCCCN)NC(=O)[C@@H]2CCCN2C(=O)[C@H](C)NC(=O)[C@H]([C@@H](C)O)NC(=O)[C@H](CC(=O)O)NC1=O [I7A] | 0.96 | 5.2 |  |  |  |  | approximately 1 kcal/mol | 
CC[C@H](C)[C@@H]1NC(=O)[C@@H](NC(=O)[C@H](CO)NC(=O)[C@@H](N)CCCNC(=N)N)CSSC[C@@H](C(=O)O)NC(=O)[C@H]([C@@H](C)O)NC(=O)CNC(=O)[C@@H]2CSSC[C@@H]3NC(=O)[C@H](CCC(N)=O)NC(=O)[C@H](Cc4ccccc4)NC(=O)[C@H](C)NC(=O)[C@H]([C@@H](C)O)NC(=O)[C@H](CSSC[C@H](NC(=O)[C@H](Cc4ccccc4)NC(=O)[C@H](CO)NC(=O)[C@H](CC(C)C)NC(=O)[C@H](CCCNC(=N)N)NC(=O)[C@H](Cc4ccc(O)cc4)NC(=O)[C@H](CCCNC(=N)N)NC(=O)[C@H](CCSC)NC(=O)[C@H](CO)NC(=O)[C@H](Cc4c[nH]cn4)NC(=O)[C@H](CCCCN)NC3=O)C(=O)N[C@@H](CCCNC(=N)N)C(=O)N[C@@H](CCCCN)C(=O)N[C@@H]([C@@H](C)O)C(=O)N2)NC(=O)[C@H](CCCNC(=N)N)NC(=O)[C@H](CO)NC(=O)[C@H](CCCCN)NC(=O)[C@@H]2CCCN2C(=O)[C@H]([C@@H](C)CC)NC(=O)[C@H]([C@@H](C)O)NC(=O)[C@H](CC(=O)O)NC1=O [K22R] |  | > 500 |  |  |  | > 3.65 |  | > 500
RSCIDTIPKSRCTAPQCKHSMKYRLSFCRKTCGAC [T34A] | 0.0 | 1.0 |  |  |  |  |  | 
CC[C@H](C)[C@@H]1NC(=O)[C@@H](NC(=O)[C@H](CO)NC(=O)[C@@H](N)CCCNC(=N)N)CSSC[C@@H](C(=O)O)NC(=O)[C@H]([C@@H](C)O)NC(=O)CNC(=O)[C@@H]2CSSC[C@@H]3NC(=O)[C@H](CCC(N)=O)NC(=O)[C@H](Cc4ccccc4)NC(=O)[C@H](C)NC(=O)[C@H]([C@@H](C)O)NC(=O)[C@H](CSSC[C@H](NC(=O)[C@H](Cc4ccccc4)NC(=O)[C@H](CO)NC(=O)[C@H](CC(C)C)NC(=O)[C@H](CCCNC(=N)N)NC(=O)[C@H](Cc4ccc(O)cc4)NC(=O)[C@H](CCCCN)NC(=O)[C@H](CCSC)NC(=O)[C@H](CO)NC(=O)[C@H](Cc4c[nH]cn4)NC(=O)[C@H](CCCCN)NC3=O)C(=O)N[C@@H](CCCNC(=N)N)C(=O)N[C@@H](CCCCN)C(=O)N[C@@H]([C@@H](C)O)C(=O)N2)NC(=O)[C@H](CCCNC(=N)N)NC(=O)[C@H](CO)NC(=O)[C@H](C)NC(=O)[C@@H]2CCCN2C(=O)[C@H]([C@@H](C)CC)NC(=O)[C@H]([C@@H](C)O)NC(=O)[C@H](CC(=O)O)NC1=O [K9A] | 0.15 | 1.3 |  |  |  |  |  | 
CC[C@H](C)[C@@H]1NC(=O)[C@@H](NC(=O)[C@H](CO)NC(=O)[C@@H](N)CCCNC(=N)N)CSSC[C@@H](C(=O)O)NC(=O)[C@H]([C@@H](C)O)NC(=O)CNC(=O)[C@@H]2CSSC[C@@H]3NC(=O)[C@H](CCC(N)=O)NC(=O)[C@H](Cc4ccccc4)NC(=O)[C@H](C)NC(=O)[C@H]([C@@H](C)O)NC(=O)[C@H](CSSC[C@H](NC(=O)[C@H](Cc4ccccc4)NC(=O)[C@H](CO)NC(=O)[C@H](CC(C)C)NC(=O)[C@H](CCCNC(=N)N)NC(=O)[C@H](Cc4ccc(O)cc4)NC(=O)[C@H](CCC(=O)O)NC(=O)[C@H](CCSC)NC(=O)[C@H](CO)NC(=O)[C@H](Cc4c[nH]cn4)NC(=O)[C@H](CCCCN)NC3=O)C(=O)N[C@@H](CCCNC(=N)N)C(=O)N[C@@H](CCCCN)C(=O)N[C@@H]([C@@H](C)O)C(=O)N2)NC(=O)[C@H](CCCNC(=N)N)NC(=O)[C@H](CO)NC(=O)[C@H](CCCCN)NC(=O)[C@@H]2CCCN2C(=O)[C@H]([C@@H](C)CC)NC(=O)[C@H]([C@@H](C)O)NC(=O)[C@H](CC(=O)O)NC1=O [K22E] |  |  | greatly reduced affinity | 726.0 | 3.86 |  |  | 
RSCIDSTIPKSRCTAAQKHSMKYRASFCRKTCGTC [A15 + A25] |  | 2.1 |  | 2.1 | 0.43 | 0.43 |  | 
RSCIDTIPKSRCTAPQCKHSMKYRLSFCRATCGTC [K30A] | 0.98 | 5.3 |  |  |  |  | approximately 1 kcal/mol | 
CC[C@H](C)[C@@H]1NC(=O)[C@@H](NC(=O)[C@H](CO)NC(=O)[C@@H](N)CCCNC(=N)N)CSSC[C@@H](C(=O)O)NC(=O)[C@H]([C@@H](C)O)NC(=O)CNC(=O)[C@@H]2CSSC[C@@H]3NC(=O)[C@H](CCC(N)=O)NC(=O)[C@H](Cc4ccccc4)NC(=O)[C@H](C)NC(=O)[C@H]([C@@H](C)O)NC(=O)[C@H](CSSC[C@H](NC(=O)[C@H](Cc4ccccc4)NC(=O)[C@H](CO)NC(=O)[C@H](CC(C)C)NC(=O)[C@H](CCCNC(=N)N)NC(=O)[C@H](Cc4ccc(O)cc4)NC(=O)[C@H](CCCCN)NC(=O)[C@H](CCSC)NC(=O)[C@H](CO)NC(=O)[C@H](CCCCN)NC(=O)[C@H](CCCCN)NC3=O)C(=O)N[C@@H](CCCNC(=N)N)C(=O)N[C@@H](CCCCN)C(=O)N[C@@H]([C@@H](C)O)C(=O)N2)NC(=O)[C@H](CCCNC(=N)N)NC(=O)[C@H](CO)NC(=O)[C@H](CCCCN)NC(=O)[C@@H]2CCCN2C(=O)[C@H]([C@@H](C)CC)NC(=O)[C@H]([C@@H](C)O)NC(=O)[C@H](CC(=O)O)NC1=O [H19K] |  | 2.6 | slightly reduced IC50 ratio | 2.6 | 0.56 | 0.56 |  | 

same assay, conditions: read-out: IC50 Rat Brain 125I-CTX

Compound | IC50 [nM]
CC[C@H](C)[C@@H]1NC(=O)[C@@H](NC(=O)[C@H](CO)NC(=O)[C@@H](N)CCCNC(=N)N)CSSC[C@@H](C(=O)O)NC(=O)[C@H]([C@@H](C)O)NC(=O)CNC(=O)[C@@H]2CSSC[C@@H]3NC(=O)[C@H](CCC(N)=O)NC(=O)[C@H](Cc4ccccc4)NC(=O)[C@H](C)NC(=O)[C@H]([C@@H](C)O)NC(=O)[C@H](CSSC[C@H](NC(=O)[C@H](Cc4ccccc4)NC(=O)[C@H](CO)NC(=O)[C@H](CC(C)C)NC(=O)[C@H](CCCNC(=N)N)NC(=O)[C@H](CO)NC(=O)[C@H](CCCCN)NC(=O)[C@H](CCSC)NC(=O)[C@H](CO)NC(=O)[C@H](Cc4c[nH]cn4)NC(=O)[C@H](CCCCN)NC3=O)C(=O)N[C@@H](CCCNC(=N)N)C(=O)N[C@@H](CCCCN)C(=O)N[C@@H]([C@@H](C)O)C(=O)N2)NC(=O)[C@H](CCCNC(=N)N)NC(=O)[C@H](CO)NC(=O)[C@H](CCCCN)NC(=O)[C@@H]2CCCN2C(=O)[C@H]([C@@H](C)CC)NC(=O)[C@H]([C@@H](C)O)NC(=O)[C@H](CC(=O)O)NC1=O [Y23S] | > 5000
CC[C@H](C)[C@@H]1NC(=O)[C@@H](NC(=O)[C@H](CO)NC(=O)[C@@H](N)CCCNC(=N)N)CSSC[C@@H](C(=O)O)NC(=O)[C@H]([C@@H](C)O)NC(=O)CNC(=O)[C@@H]2CSSC[C@@H]3NC(=O)[C@H](CCC(N)=O)NC(=O)[C@H](Cc4ccccc4)NC(=O)[C@H](C)NC(=O)[C@H]([C@@H](C)O)NC(=O)[C@H](CSSC[C@H](NC(=O)[C@H](Cc4ccccc4)NC(=O)[C@H](CO)NC(=O)[C@H](CC(C)C)NC(=O)[C@H](CCCNC(=N)N)NC(=O)[C@H](Cc4ccc(O)cc4)NC(=O)[C@H](CCCNC(=N)N)NC(=O)[C@H](CCSC)NC(=O)[C@H](CO)NC(=O)[C@H](Cc4c[nH]cn4)NC(=O)[C@H](CCCCN)NC3=O)C(=O)N[C@@H](CCCNC(=N)N)C(=O)N[C@@H](CCCCN)C(=O)N[C@@H]([C@@H](C)O)C(=O)N2)NC(=O)[C@H](CCCNC(=N)N)NC(=O)[C@H](CO)NC(=O)[C@H](CCCCN)NC(=O)[C@@H]2CCCN2C(=O)[C@H]([C@@H](C)CC)NC(=O)[C@H]([C@@H](C)O)NC(=O)[C@H](CC(=O)O)NC1=O [K22R] | 2000

molecular target: rat brain membrane K channels (delayed rectifier, primarily Kv1.2) (rat) (UniProt P63142); experiment: 125I-DTX displacement, rat brain membranes; details: not given

Compound | IC50 ratio (analog IC50/ShK IC50) | free energy difference of binding [kcal/mol]
ShK I7A (peptide) | 5.2 | 0.96
ShK K9A (peptide) | 1.3 | 0.15
ShK P8A (peptide) | 1.9 | 0.38
ShK R1A (peptide) | 1.5 | 0.23

molecular target: Kv1.3 potassium channels in Jurkat T lymphocytes (Homo sapiens, UniProt P22001); experiment: not given; type: cell-based; details: not given
Sequence (P22001 whole entry): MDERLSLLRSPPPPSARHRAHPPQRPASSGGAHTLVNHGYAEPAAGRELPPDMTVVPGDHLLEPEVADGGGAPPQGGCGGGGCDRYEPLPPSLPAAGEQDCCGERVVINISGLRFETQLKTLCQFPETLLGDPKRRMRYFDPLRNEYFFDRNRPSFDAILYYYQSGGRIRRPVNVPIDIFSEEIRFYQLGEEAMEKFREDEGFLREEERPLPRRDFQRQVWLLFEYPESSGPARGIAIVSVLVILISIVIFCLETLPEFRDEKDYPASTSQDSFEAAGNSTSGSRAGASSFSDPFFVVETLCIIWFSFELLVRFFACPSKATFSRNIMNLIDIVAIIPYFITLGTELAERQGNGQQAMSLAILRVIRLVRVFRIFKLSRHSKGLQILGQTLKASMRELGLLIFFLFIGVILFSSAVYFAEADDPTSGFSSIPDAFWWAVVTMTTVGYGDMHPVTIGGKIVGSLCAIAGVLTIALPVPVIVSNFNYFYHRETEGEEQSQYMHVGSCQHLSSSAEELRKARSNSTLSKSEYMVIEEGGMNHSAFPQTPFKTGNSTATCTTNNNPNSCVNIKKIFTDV

Compound | Equipotent Molar Ration (Analog IC50 /ShK IC50) Lymphocyte | reduction of affinity (IC50) for Kv1.3 relative to ShK toxin [fold]
CC[C@H](C)[C@@H]1NC(=O)[C@@H](NC(=O)[C@H](CO)NC(=O)[C@@H](N)CCCNC(=N)N)CSSC[C@@H](C(=O)O)NC(=O)[C@H]([C@@H](C)O)NC(=O)CNC(=O)[C@@H]2CSSC[C@@H]3NC(=O)[C@H](CCC(N)=O)NC(=O)[C@H](Cc4ccccc4)NC(=O)[C@H](C)NC(=O)[C@H]([C@@H](C)O)NC(=O)[C@H](CSSC[C@H](NC(=O)[C@H](Cc4ccccc4)NC(=O)[C@H](CO)NC(=O)[C@H](CC(C)C)NC(=O)[C@H](CCCNC(=N)N)NC(=O)[C@H](Cc4ccc(O)cc4)NC(=O)[C@H](CCCNC(=N)N)NC(=O)[C@H](CCSC)NC(=O)[C@H](CO)NC(=O)[C@H](Cc4c[nH]cn4)NC(=O)[C@H](CCCCN)NC3=O)C(=O)N[C@@H](CCCNC(=N)N)C(=O)N[C@@H](CCCCN)C(=O)N[C@@H]([C@@H](C)O)C(=O)N2)NC(=O)[C@H](CCCNC(=N)N)NC(=O)[C@H](CO)NC(=O)[C@H](CCCCN)NC(=O)[C@@H]2CCCN2C(=O)[C@H]([C@@H](C)CC)NC(=O)[C@H]([C@@H](C)O)NC(=O)[C@H](CC(=O)O)NC1=O [K22R] | 225 | > 225
